Data on 40 compounds can be found in the Kinase Knowledgebase extract (Sharma et al. 2016).

In the assay the target is EGFR (UniProt P00533).

Structures are written as SMILES.

EGFR, sequence (P00533 whole entry, looked up): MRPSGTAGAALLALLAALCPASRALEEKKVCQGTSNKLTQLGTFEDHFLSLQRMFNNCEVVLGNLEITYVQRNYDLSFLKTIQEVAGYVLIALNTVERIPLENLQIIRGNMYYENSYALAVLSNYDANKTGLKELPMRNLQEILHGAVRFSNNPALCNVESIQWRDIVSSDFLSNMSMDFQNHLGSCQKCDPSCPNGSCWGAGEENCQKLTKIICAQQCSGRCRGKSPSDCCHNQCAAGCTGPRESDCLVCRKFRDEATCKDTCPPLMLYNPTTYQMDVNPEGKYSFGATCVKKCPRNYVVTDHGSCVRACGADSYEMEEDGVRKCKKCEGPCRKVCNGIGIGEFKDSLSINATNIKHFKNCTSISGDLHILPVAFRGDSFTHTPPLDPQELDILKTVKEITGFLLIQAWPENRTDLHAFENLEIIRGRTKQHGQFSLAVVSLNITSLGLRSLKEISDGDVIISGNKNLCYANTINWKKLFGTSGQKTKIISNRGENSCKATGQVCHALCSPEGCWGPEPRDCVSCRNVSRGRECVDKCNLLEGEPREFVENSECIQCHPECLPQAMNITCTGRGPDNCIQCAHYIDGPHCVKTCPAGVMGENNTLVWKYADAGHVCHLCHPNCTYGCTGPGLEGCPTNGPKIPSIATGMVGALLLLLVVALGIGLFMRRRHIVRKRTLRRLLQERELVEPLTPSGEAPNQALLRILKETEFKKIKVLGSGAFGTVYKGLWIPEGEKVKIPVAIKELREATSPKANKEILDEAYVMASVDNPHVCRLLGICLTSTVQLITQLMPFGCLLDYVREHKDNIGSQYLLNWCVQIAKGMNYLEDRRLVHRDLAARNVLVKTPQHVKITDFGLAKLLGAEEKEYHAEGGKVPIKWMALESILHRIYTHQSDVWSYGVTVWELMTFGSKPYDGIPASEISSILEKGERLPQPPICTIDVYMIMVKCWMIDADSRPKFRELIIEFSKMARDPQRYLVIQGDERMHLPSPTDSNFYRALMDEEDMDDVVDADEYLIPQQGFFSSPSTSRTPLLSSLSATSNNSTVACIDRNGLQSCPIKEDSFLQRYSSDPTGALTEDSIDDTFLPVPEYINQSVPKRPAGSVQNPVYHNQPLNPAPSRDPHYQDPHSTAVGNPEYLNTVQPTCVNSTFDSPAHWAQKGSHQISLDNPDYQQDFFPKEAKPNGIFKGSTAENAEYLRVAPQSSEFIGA

The compound `COc1cc2c(Nc3ccc(Cl)c(Cl)c3)ncnc2cc1OCC1CN(C(=O)c2c(F)ccc(F)c2F)CCO1` (stereo not given) had a 50% inhibitory concentration (IC50) of less than 50 nM.

`COc1cc2c(Nc3ccc(Br)c(Cl)c3)ncnc2cc1O[C@H]1CO[C@@H]2[C@H]1OC[C@@H]2S(C)(=O)=O`: the half-maximal inhibitory concentration (IC50) was less than 50 nM.

With `COc1cc2c(Nc3ccc(Br)c(Cl)c3F)ncnc2cc1O[C@@H]1CO[C@@H]2[C@H]1OC[C@H]2F`, the half-maximal inhibitory concentration (IC50) was less than 50 nM.

For the compound `COc1cc2c(Nc3ccc(Cl)c(C(F)(F)F)c3)ncnc2cc1O[C@@H]1CO[C@@H]2[C@H]1OC[C@H]2F`, the IC50 was less than 50 nM.

The compound `CCCCCCCCN1CCOC(COc2cc3ncnc(Nc4ccc(Cl)c(Cl)c4)c3cc2OC)C1` (stereo not given) yielded an IC50 of less than 50 nM.

For the compound `COc1cc2c(Nc3ccc(Cl)c(Cl)c3F)ncnc2cc1OC[C@@H]1CN2CCCC[C@@H]2C(=O)N1`, the concentration for half-maximal inhibition (IC50) was less than 50 nM.

`COc1cc2c(Nc3ccc(Cl)c(Cl)c3F)ncnc2cc1O[C@H]1CO[C@H]2[C@@H]1OC[C@@H]2OC` gave a 50% inhibitory concentration (IC50) of less than 50 nM.

`COC(=O)CCC(=O)N1CCOC(COc2cc3ncnc(Nc4ccc(Cl)c(Cl)c4)c3cc2OC)C1` (stereo not given) displayed a 50% inhibitory concentration (IC50) of less than 50 nM.

`COc1cc2c(Nc3ccc(Br)cc3F)ncnc2cc1OCC1CN(C)CCO1` (stereo not given) registered an IC50 of less than 50 nM.

For the compound `COc1cc2c(Nc3ccc(Br)c(Cl)c3)ncnc2cc1O[C@H]1CO[C@H]2[C@@H]1OC[C@@]21COC(C)(C)O1`, the IC50 was less than 50 nM.

Compound `COc1cc2c(Nc3ccc(Br)cc3Cl)ncnc2cc1O[C@@H]1CO[C@@H]2[C@H]1OC[C@H]2F` returned an IC50 of less than 50 nM.

Take `COc1cc2c(Nc3ccc(Cl)c(Cl)c3)ncnc2cc1OCC1CN(CCCCCC#N)CCO1` (stereo not given): the concentration for half-maximal inhibition (IC50) is less than 50 nM.

In turn, `CCN1CCCOC(COc2cc3ncnc(Nc4ccc(Cl)c(Cl)c4)c3cc2OC)C1` (stereo not given) showed an IC50 of less than 50 nM.

Take `COc1cc2c(Nc3ccc(Cl)c(Cl)c3)ncnc2cc1OCc1nc(N(C)C)no1`: the 50% inhibitory concentration (IC50) is less than 50 nM.

Turning to `COc1cc2c(Nc3ccc(Cl)c(Cl)c3)ncnc2cc1OCC1CN(C(=NC#N)N2CCCC2)CCO1` (stereo not given), the IC50 was less than 50 nM.

`COc1cc2c(Nc3ccc(Cl)c(Cl)c3)ncnc2cc1OCC1CN(C(N)=NC#N)CCCO1` (stereo not given) returned an IC50 of less than 50 nM.

Turning to `COc1cc2c(Nc3cc(F)ccc3F)ncnc2cc1O[C@@H]1CO[C@@H]2[C@H]1OC[C@H]2F`, the IC50 was less than 50 nM.

As to `COc1cc2c(Nc3ccc(Cl)c(Cl)c3)ncnc2cc1OC1CC2CCC(C1)N2C` (stereo not given), the concentration for half-maximal inhibition (IC50) is less than 50 nM.

`COc1cc2c(Nc3cc(Cl)c(Br)cc3F)ncnc2cc1OCC1CN(C)CCO1` (stereo not given): the half-maximal inhibitory concentration (IC50) is less than 50 nM.

As to `COc1cc2c(Nc3ccc(Br)c(Cl)c3Cl)ncnc2cc1O[C@H]1CO[C@H]2[C@@H]1OC[C@@H]2OC`, the IC50 was less than 50 nM.

Turning to `CC(C)Oc1cc2c(Nc3ccc(Cl)c(Cl)c3)ncnc2cc1OCC1CNCCO1` (stereo not given), the IC50 is less than 50 nM.

`COc1cc2c(Nc3ccc(Cl)c(Cl)c3)ncnc2cc1OCC1CN(C)C(C)(C)CO1` (stereo not given) had an IC50 of less than 50 nM.

`CCN1CCCC1c1nc(COc2cc3ncnc(Nc4ccc(Cl)c(Cl)c4)c3cc2OC)no1` (stereo not given) yielded an IC50 of less than 50 nM.

In the case of `COc1cc2c(Nc3cc(Cl)c(Cl)c(Cl)c3)ncnc2cc1OCC1CN(C)CCO1` (stereo not given), the 50% inhibitory concentration (IC50) was less than 50 nM.

`COc1cc2c(Nc3ccc(Cl)c(Cl)c3)ncnc2cc1OCc1noc(C2CCCN2C)n1` (stereo not given) displayed an IC50 of less than 50 nM.

In turn, `COc1cc2c(Nc3ccc(Cl)c(Cl)c3)ncnc2cc1OCc1csc([C@@H]2CCCN2)n1` came in with an IC50 of less than 50 nM.

Compound `COc1cc2c(Nc3cccc(Cl)c3F)ncnc2cc1O[C@H]1CO[C@H]2[C@@H]1OC[C@@H]2OC` showed a concentration for half-maximal inhibition (IC50) of less than 50 nM.

Compound `COc1cc2c(Nc3ccc(Cl)c(Cl)c3)ncnc2cc1OCC1CN(C2CCN(C)CC2)CCO1` (stereo not given) displayed an IC50 of less than 50 nM.

In turn, `COc1cc2c(Nc3ccc(Cl)c(Cl)c3)ncnc2cc1OCc1nnc(-c2ccc(C)cc2)o1` registered an IC50 of less than 50 nM.

The compound `COc1cc2c(Nc3ccc(Cl)c(Cl)c3)ncnc2cc1OCC1CCCO1` (stereo not given) returned a 50% inhibitory concentration (IC50) of less than 50 nM.

Take `COc1cc2c(Nc3ccc(Cl)c(Cl)c3)ncnc2cc1OCC1CN(C)C(C)(C)C(=O)O1` (stereo not given): the IC50 was less than 50 nM.

For `CN1CCOC(COc2cc3ncnc(Nc4ccc(Cl)c(Cl)c4)c3cc2O)C1` (stereo not given), the IC50 is less than 50 nM.

With `COc1cc2c(Nc3ccc(Cl)c(Cl)c3)ncnc2cc1OCC1CCC1`, the IC50 was less than 50 nM.

In turn, `COc1cc2c(Nc3ccc(Cl)c(Cl)c3)ncnc2cc1O[C@H]1CO[C@H]2[C@@H]1OC[C@@H]2OC` gave a half-maximal inhibitory concentration (IC50) of less than 50 nM.

On to `COc1cc2c(Nc3cc(F)c(Oc4ccc(Cl)cc4)c(F)c3)ncnc2cc1O[C@@H]1CO[C@@H]2[C@H]1OC[C@H]2F`, for which the concentration for half-maximal inhibition (IC50) was less than 50 nM.

Consider `COc1cc2c(Nc3ccc(Br)c(Cl)c3F)ncnc2cc1OC[C@@H]1CN(C)CC(=O)N1`, for which the IC50 was less than 50 nM.

`COc1cc2c(Nc3cc(Cl)c(Br)cc3F)ncnc2cc1OCC1CN(C)C(C)(C)CO1` (stereo not given) registered an IC50 of less than 50 nM.

Regarding `COc1cc2c(Nc3ccc(Cl)c(Cl)c3)ncnc2cc1OCC1CN(CCCOC2CCCCO2)CCCO1` (stereo not given), the half-inhibitory concentration (IC50) is less than 50 nM.

In turn, `COc1cc(OC)c(Nc2ncnc3cc(O[C@@H]4CO[C@@H]5[C@H]4OC[C@H]5F)c(OC)cc23)cc1Cl` had an IC50 of less than 50 nM.

Compound `COc1cc2c(Nc3ccc(Cl)c(Cl)c3)ncnc2cc1OCc1csc(C2CCCN(C)C2)n1` (stereo not given) registered a half-inhibitory concentration (IC50) of less than 50 nM.

A word on the IC50: it is the concentration at which inhibition is half-maximal. A higher IC50 goes with weaker potency in that assay.
